Tested on: male Wistar rats
Assay: Antiinflammatory activity by air pouch technique (croton oil)
Assay type: in vivo
Details: Rattus norvegicus, 192 h, 25 mg/kg/day into the pouch in 5% gum arabic, once a day for 6 days, amount of exudate on day 8 vs control group, ** p<0.01, * p<0.05, read-out: Antiinflammatory rate (%)
Protocol: The antiinflammatory activity of the compound of the invention was determined by an air pouch technique generally comforming to the method described in the literature [Proc. Soc. Exp. Biol. Med., 82 , 328-333, 1953].
The test was carried out using male Wistar rats (average body weight 200 g, 7 animals per group). A thick paper sheet with an oval cutout (2 x 5 cm) was attached to the clipped back of the animal under pentobarbital anesthesia. The skin was picked up through the central cutout and 10 ml of air was injected subcutaneously to prepare an air pouch. Then, 1 ml of 2% croton oil, as a phlogogenic agent, was injected into the pouch. The paper sheet was removed and the animal was gently rotated in order that the croton oil would be thoroughly contacted with the inner wall of the pouch.
The test compound suspended in 5% gum arabic was administered into the pouch (25 mg/kg/day) once a day for 6 days beginning the day after preparation of the pouch. The group of animals subjected to the above treatment was designated as the experimental group.
On day 8, the animals were bled to death and the amount (ml) of exudate in the pouch was measured. The antiinflammatory rate was calculated with the result in the control group ( a group not receiving the test compound) as a reference according to the following equation. [formula]

`CC(C)(C)c1cc(Nc2nccnn2)cc(C(C)(C)CO)c1O` [Compound 11] gave an inhibition in vivo at 25 mg/kg/day of 20%.

`CC(C)(C)c1cc(Nc2cccnc2)cc(C(C)(C)CO)c1O` [Compound 8] showed an inhibition in vivo at 25 mg/kg/day of 19%.

`CC(C)(C)c1cc(Nc2ncccn2)cc(C(C)(C)CO)c1O` [Compound 10] was tested, and the inhibition in vivo at 25 mg/kg/day was 24%.

In the case of `CC(=O)OCC(C)(C)c1cc(Nc2nccs2)cc(C(C)(C)C)c1O` [Compound 13, 2-(2-acetoxy-1,1-dimethylethyl)-6-(1,1-dimethylethyl)-4-(2-thiazolylamino)phenol], the inhibition in vivo at 25 mg/kg/day is reported as 60%.

With `CC(C)(C)c1cc(Nc2nc(CC(=O)O)cs2)cc(C(C)(C)CO)c1O` [Compound 15, 2-[3-(1,1-dimethylethyl)-5-(1,1-dimethyl-2-hydroxyethyl)-4-hydroxyphenylamino]-4-thiazolylacetic acid] the inhibition in vivo at 25 mg/kg/day was 32%.

With `CC(C)(C)c1cc(Nc2cnccn2)cc(C(C)(C)CO)c1O` [Compound 1, 2-(1,1-dimethylethyl)-6-(1,1-dimethyl-2-hydroxyethyl)-4-pyrazinylaminophenol] the inhibition in vivo at 25 mg/kg/day was 68%.

With `CC(C)(C)c1cc(Nc2nccs2)cc(C(C)(C)CO)c1O` [Compound 3, 2-(1,1-Dimethylethyl)-6-(1,1-dimethyl-2-hydroxyethyl)-4-[N-(2-thiazolyl)amino]phenol] the inhibition in vivo at 25 mg/kg/day was 71%.

With `CC(=O)OCC(C)(C)c1cc(N(C(C)=O)c2nccs2)cc(C(C)(C)C)c1O` [Compound 14, 2-(2-acetoxy-1,1-dimethylethyl)-6-(1,1-dimethylethyl)-4-[N-acetyl-N-(2-thiazolyl)amino]phenol] the inhibition in vivo at 25 mg/kg/day was 51%.

Molecule `CC(C)(C)c1cc(Nc2ccccc2)cc(C(C)(C)CO)c1O` [Compound 6] has an inhibition in vivo at 25 mg/kg/day of 14%.
